{"source": "patent US7807714B2", "about": "“Fungicidal compositions” (Syngenta Crop Protection, Inc., priority 2006, dated 2010)", "format_in_all_cases": "cell-based", "key": {"[1]": {"tested_on": "Pyrenophora Graminea", "experiment": "Activity against Pyrenophora Graminea (growth inhibition in PDB, microtiter plate, photometric)", "settings": "72 hrs"}, "[2]": {"tested_on": "Rhizoctonia Solani", "experiment": "Activity against Rhizoctonia Solani (growth inhibition in PDB, microtiter plate, photometric)", "settings": "48 hrs"}, "[3]": {"tested_on": "Fusarium Graminearum", "settings": "48 hrs"}, "[4]": {"tested_on": "Gäumannomyces Graminis", "experiment": "Activity Against Gäumannomyces Graminis (growth inhibition in PDB, microtiter plate, photometric)", "settings": "72 hrs"}, "[5]": {"tested_on": "Pythium Ultimum", "experiment": "Activity against Pythium Ultimum (growth inhibition in PDB, microtiter plate, photometric)", "settings": "48 hrs"}, "[6]": {"settings": "0.0039 ppm (mg active ingredient/liter final medium)"}, "[7]": {"settings": "0.0078 ppm (mg active ingredient/liter final medium)"}, "[8]": {"settings": "0.03125 ppm (mg active ingredient/liter final medium)"}, "[9]": {"settings": "0.0625 ppm (mg active ingredient/liter final medium)"}, "[10]": {"settings": "0.125 ppm (mg active ingredient/liter final medium)"}, "[11]": {"settings": "1.0 ppm (mg active ingredient/liter final medium)"}, "[12]": {"settings": "0.25 ppm (mg active ingredient/liter final medium)"}, "[13]": {"settings": "0.5 ppm (mg active ingredient/liter final medium)"}}, "note": "Several values for one entry are separate records, joined by “and”; a condition that tells them apart may be missing. Equal values may be shown once. Read-outs that look alike come from different tables or passages of the source."}
{"smiles": "Cn1cc(C(=O)Nc2ccccc2C2CC2C2CC2)c(C(F)F)n1", "note": "(racemic) [Cpd A]", "values": [{"measurement": "Observed control in % (% Cobs)", "setting": "[1]; 0.002 ppm (mg active ingredient/liter final medium)", "result": 0, "unit": "%"}, {"measurement": "Observed control in % (% Cobs)", "setting": "[1]; [6]", "result": "1.3% and 3.3%"}, {"measurement": "Observed control in % (% Cobs)", "setting": "[1]; [7]", "result": 0, "unit": "%"}, {"measurement": "Observed control in % (% Cobs)", "setting": "[1]; 0.0156 ppm (mg active ingredient/liter final medium)", "result": 0, "unit": "%"}, {"measurement": "Observed control in % (% Cobs)", "setting": "[1]; [8]", "result": "0% and 5.8%"}, {"measurement": "Observed control in % (% Cobs)", "setting": "[1]; [9]", "result": 4.0, "unit": "%"}, {"measurement": "Observed control in % (% Cobs)", "setting": "[1]; [10]", "result": 0, "unit": "%"}, {"measurement": "Observed control in % (% Cobs)", "setting": "[1]; [11]", "result": 0, "unit": "%"}, {"measurement": "Observed control in % (% Cobs)", "setting": "[2]; [9]", "result": 0, "unit": "%"}, {"measurement": "Observed control in % (% Cobs)", "setting": "[2]; [10]", "result": "22.8% and 23.0% and 29.3% and 40.2%"}, {"measurement": "Observed control in % (% Cobs)", "setting": "[2]; [12]", "result": 73.2, "unit": "%"}, {"measurement": "Observed control in % (% Cobs)", "setting": "[3]; [8]", "result": 0, "unit": "%"}, {"measurement": "Observed control in % (% Cobs)", "setting": "[3]; [9]", "result": "2.0% and 4.2%"}, {"measurement": "Observed control in % (% Cobs)", "setting": "[3]; [10]", "result": 3.5, "unit": "%"}, {"measurement": "Observed control in % (% Cobs)", "setting": "[3]; [12]", "result": "10.5% and 4.0%"}, {"measurement": "Observed control in % (% Cobs)", "setting": "[3]; [13]", "result": 9.3, "unit": "%"}, {"measurement": "Observed control in % (% Cobs)", "setting": "[3]; [11]", "result": "6.6% and 5.8%"}, {"measurement": "Observed control in % (% Cobs)", "setting": "[4]; [10]", "result": 0, "unit": "%"}, {"measurement": "Observed control in % (% Cobs)", "setting": "[4]; [13]", "result": 0, "unit": "%"}, {"measurement": "Observed control in % (% Cobs)", "setting": "[4]; [11]", "result": 19.4, "unit": "%"}, {"measurement": "Observed control in % (% Cobs)", "setting": "[5]; [6]", "result": 0, "unit": "%"}, {"measurement": "Observed control in % (% Cobs)", "setting": "[5]; [7]", "result": 0, "unit": "%"}, {"measurement": "Observed control in % (% Cobs)", "setting": "[5]; [8]", "result": 0, "unit": "%"}]}
